Positions count from the first letter of the chain named.

Data set [1] deals with regulatory T cells CD25+ FOXP3+. In words: Regulatory T cells among tumor-infiltrating CD4+ lymphocytes. In kind it is in vivo, mice. Conditions: CD25+ FOXP3+ in CD4+ TIL. As for the experimental part:
(§1) FIGS. 7A-7G: Direct thrombin inhibitor Dabigatran Etexilate reduces platelet GARP expression and protects against melanoma and colon cancer. (A) Flow cytometry analysis of surface GARP/LAP complex on murine WT platelets stimulated with and without thrombin and Dabigratan Etexilate. (B) Tumor growth curves of mice subcutaneously injected with B16-F1 melanoma cells and daily treated with 3 mg/mouse of Dabigratan Etexilate. (C) Tumor growth curves of mice subcutaneously injected with MC38 colon cancer cells and daily treated with 3 mg/mouse of Dabigratan Etexilate. (D) Serum was obtained from tumor bearing MC38 colon cancer and active (D) and total TGF-β (E) was measured by ELISA. (F) Serum was obtained from tumor bearing MC38 colon cancer and soluble GARP was measured by ELISA. (G) Percentage of regulatory T cells CD25+ FOXP3+ in the CD4+ tumor-infiltrating CD4+ lymphocytes (TIL) from the indicated mice.
(§2) Now, to establish the clinical relevance of the Thrombin-GARP/TGF-β axis, the direct thrombin inhibitor, Dabigatran Etexilate was employed. […] The anti-tumor efficacy of Dabigatran Etexilate was tested in 2 different tumor models. […] As a further proof of the mechanism employed by dabigatran to exert its antitumor activity, serum active and total TGF-β, and serum GARP concentrations were assessed by ELISA.

A further data set has as its system B16-F1 melanoma cells. In words: B16-F1 melanoma tumor growth in mice. In kind it is in vivo. Conditions: subcutaneous B16-F1, daily 3 mg/mouse, no adoptive T cell transfer. As for the experimental part:
as §1
(§3) (A) Tumor growth curves of mice subcutaneously injected with MC38 colon cancer cells and daily treated with 3 mg/mouse of Dabigatran etexilate. […]
(§4) Now, to establish the clinical relevance of the Thrombin-GARP/TGF-β axis, the direct thrombin inhibitor, Dabigatran Etexilate was employed. […] As a further proof of the mechanism employed by dabigatran to exert its antitumor activity, serum active and total TGF-β, and serum GARP concentrations were assessed by ELISA.

The subject of data set [2] is thrombin activated platelets. In words: Flow cytometry of surface GARP/LAP on platelets stimulated with thrombin. In kind it is cell-based, murine. Here is the method:
as §1, §2
Background: Flow cytometry measures light scatter and fluorescence of single cells or particles in a stream.

Another data set has as its system soluble GARP. The data set is described as follows: Serum soluble GARP ELISA in MC38 tumor bearing mice. Type of data set: in vivo. Here is the method: as §1, §2
The subject of data set [3] is MC38 colon cancer cells. In words: MC38 colon cancer tumor growth in mice. Type of data set: in vivo. Conditions: subcutaneous MC38, daily 3 mg/mouse. As for the experimental part:
as §1, §3, §4

Data set [4] concerns MC38 colon cancer cells. The data set is described as follows: Dabigatran and PD1 blocking antibody combination therapy in MC38 tumor model. In kind it is in vivo, mice. Conditions: dabigatran 3 mg/mouse daily oral gavage, 200 μg anti-PD1 every 3 days from day 8. The text has this: (A) Experimental design for Dabigatran and PD1 blocking antibody combination therapy. (B) Tumor growth curves of mice subcutaneously injected with MC38 colon cancer cells and treated with Dabigatran alone, with PD1 blocking antibody, with the combination of Dabigatran and PD1 blocking antibody or left untreated. (C) Survival curve in MC38-bearing mice treated with Dabigatran alone, with PD1 blocking antibody, with the combination of Dabigatran and PD1 blocking antibody or left untreated. Repeated measurement 2 way Anova was performed in B. Log-rank (Mantel-Cox) was performed in C. (D) Serum was collected from the mice under the dual treatment and analyzed for TGFβ concentration by TGFβ ELISA. (E) Platelets count of the mice under dual treatment. Repeated measurement 2-way ANOVA was performed in B. Log-rank (Mantel-Cox) was performed in C. Two-tailed, independent Student's t-test was used in panel D and E.
Next, Dabigatran was used in combination with PD1 blockade to block thrombin and consequentially platelet activation to achieve both a reduction of systemic and circulating TGF-β, and the abrogation of platelet-mediated tumor support. Platelets, indeed, secrete many other factors beyond TGF-β that facilitate tumor immune evasion. Animals harboring palpable tumors were daily treated with 3 mg/mouse dabigatran by oral gavage. […]

A further data set concerns TGFβ. The data set is described as follows: TGFβ ELISA on serum of WT B6 mice treated for one week. In kind it is in vivo. Conditions: one week daily gavage of 3 mg/mouse. Here is the method: (A) Tumor growth curves of mice subcutaneously injected with MC38 colon cancer cells and daily treated with 3 mg/mouse of Dabigatran etexilate. (B) Tumor growth curves of mice subcutaneously injected with B16-F1 melanoma cells and daily treated with 3 mg/mouse of Dabigatran etexilate. (C) TGFβ ELISA on serum of WT B6 mice treated for one week with daily gavage of 3 mg/mouse of Dabigatran etexilate. Repeated measurement 2-way ANOVA was performed in A and B.
(An ELISA detects its analyte on a solid surface through an enzyme-linked reagent.)

A further data set concerns TGF-β. In words: Serum active and total TGF-β ELISA in MC38 tumor bearing mice. In kind it is in vivo. Here is the method:
as §1, §2

For the next data set, the system named is thrombin. The data set is described as follows: Competition assay: GARP expressing PreB cells digested with thrombin, western blot. Type of data set: cell-based. Conditions: 4 μg thrombin. The text has this:
FIGS. 12A-12E: Thrombin cleaves GARP at the amino acid position 267 and 286 between proline and arginine. (A) Surface Flow cytometry analysis for GARP of WT PreB cells and GARP expression in PreB cells expressing WT GARP, GARP with single point mutation 267 aa, GARP with single point mutation 286 aa, GARP with double point mutation 267/286 aa (DM), and relative control vector. (B) Western Blot analysis of cells lysates and conditioned media of PreB cells expressing WT GARP, GARP with single point mutation 267 aa, GARP with single point mutation 286 aa, or GARP with double point mutation 267/286 aa using antibody against GARP. (C) PreB cells expressing WT or DM GARP were digested with increasing concentration of thrombin (0, 1, 2, and 4 μg in 25 μl), followed by western blot analysis. (D) Recombinant fragment of GARP containing the two Proline Arginine thrombin binding sites (T250; SEQ ID NO:1). (E) Western blotting analysis of GARP expressing PreB cells digested with 4 μg of thrombin in presence and absence of 4 μg of T250.
Thus, 3 types of mutants: PR 267-268AA (GARP 267), PR 286-287AA (GARP 286), and double mutant (DM) PR 267-268AA PR 286-287AA (GARP 267-286, -DM) were generated. […] Next, it tested whether GARP-DM was resistant to the cleavage of exogenous thrombin. To this end, PreB GARP-WT and PreB GARP-DM were treated with increasing concentrations of thrombin.

Data set [5] concerns T1, GARP double mutant (DM) PR 267-268AA PR 286-287AA, expressed on PreB cells.
T1 sequence: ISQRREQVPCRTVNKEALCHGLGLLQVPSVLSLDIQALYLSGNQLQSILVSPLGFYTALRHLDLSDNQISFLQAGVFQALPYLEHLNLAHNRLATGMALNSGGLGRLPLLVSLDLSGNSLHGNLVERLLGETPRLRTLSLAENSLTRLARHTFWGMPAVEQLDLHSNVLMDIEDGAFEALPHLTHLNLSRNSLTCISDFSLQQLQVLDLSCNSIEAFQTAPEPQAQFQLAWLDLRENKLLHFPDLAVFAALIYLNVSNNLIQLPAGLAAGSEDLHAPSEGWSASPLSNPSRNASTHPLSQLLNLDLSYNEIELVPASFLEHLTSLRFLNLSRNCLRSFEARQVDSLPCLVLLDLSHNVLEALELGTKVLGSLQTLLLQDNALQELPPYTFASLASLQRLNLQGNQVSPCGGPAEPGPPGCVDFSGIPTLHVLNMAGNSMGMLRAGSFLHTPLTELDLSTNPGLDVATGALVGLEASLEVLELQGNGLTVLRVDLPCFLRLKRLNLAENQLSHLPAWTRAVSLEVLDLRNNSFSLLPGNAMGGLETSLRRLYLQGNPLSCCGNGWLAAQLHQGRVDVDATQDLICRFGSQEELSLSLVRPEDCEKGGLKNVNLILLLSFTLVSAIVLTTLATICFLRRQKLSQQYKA

The test system of data set [6] is recombinant form of soluble GARP (sGARP) where the transmembrane domain was replaced by IgG1 Fc fragment.
Data set [7] deals with T2, GARP (Glycoprotein-A Repetitions Predominant Protein), wild type, expressed on PreB cells.
T2 sequence: T1 sequence with A249P, A250R, A268P, A269R

Regarding `CCCCCCOC(=O)NC(=N)c1ccc(NCc2nc3cc(C(=O)N(CCC(=O)OCC)c4ccccn4)ccc3n2C)cc1` [Dabigatran, Dabigatran Etexilate], the “TGF-β mediated induction of Tregs in the tumor microenvironment” value in data set [1] is recorded as “reduces the TGF-β mediated induction of Tregs”. In the data set on B16-F1 melanoma cells, the B16-F1 tumor growth result is given as “reduced B16-F1 tumor aggressiveness”. In addition, the “GARP expression on platelets” value in data set [2] is reported as “increase of GARP expression on platelets can be neutralized”. Also, the “serum soluble GARP” value in the data set with soluble GARP was “impairs the release of serum soluble GARP from platelets”. The MC38 tumor growth result was “sufficient to decrease the rate of tumor growth” in the data set with MC38 colon cancer cells [3] and “has anti-cancer effect in MC38 colorectal cancer” in the data set with MC38 colon cancer cells [3] (listed as Dabigatran etexilate). Also, the tumor growth result in the data set with MC38 colon cancer cells [4] is “effective in reducing tumor growth”. For the same compound, in the data set with TGFβ, the “systemic active TGFβ” value is reported as “decreases systemic active TGFβ”. Also, the “serum total TGF-β” value in the data set on TGF-β is listed as “reduced serum total TGF-β”. Further, the “serum active TGF-β, mean” value with TGF-β (difference to untreated not statistically significant) amounted to 42.47±23.73.

For the compound “T250: Recombinant fragment of GARP containing the two Proline Arginine thrombin binding sites; DLRENKLLHFPDLAVFPRLIYLNVSNNLIQLPAGLPRGSEDLHAPSEGWSA (SEQ ID NO:1) (GARP peptide)”, in the data set on thrombin (4 μg T250), the “competition with surface GARP in binding with thrombin” value is listed as “competed with surface GARP in binding with thrombin”. Further, in the data set with thrombin (in presence of exogenous thrombin, 4 μg T250, western blot), the GARP cleavage entry is “able to reduce GARP cleavage”.

For the compound thrombin, the “western blot after digestion of PreB GARP-DM with increasing concentrations of thrombin” value in data set [5] is “no cleaved products were observed in GARP-DM”. Further, the “western blot of soluble GARP digested with increasing concentrations of thrombin” value in data set [6] is “digestion of soluble GARP with thrombin gave rise to 3 fragments: GARP full length (72 KD), and the 2 smaller fragments of 44 and 29 KD”. The “western blot after digestion of PreB GARP-WT with increasing concentrations of thrombin” value in data set [7] is “Both 44 and 29 KD fragments increased in a dose dependent fashion in GARP-WT”.

These data come from patent publication US20210087240A1, “BLOCKING GARP CLEAVAGE AND METHODS OF USE THEREOF” (MUSC FOUNDATION FOR RESEARCH DEVELOPMENT, priority 2017, published 2021).
